pIC50: −log10 of the molar value.
Assays:
[1] = molecular target: T1, human NOX5 (hNOX5) (Homo sapiens, UniProt Q96PH1); assay: NOX5 inhibition assay (L-012), HEK293 cells stably overexpressing human NOX5; type: cell-based; details: HEK293-hNOX5, PMA stimulated
T1 construct: expressed in transfected cells; host or cells: HEK293
T1 sequence (Q96PH1 1-765): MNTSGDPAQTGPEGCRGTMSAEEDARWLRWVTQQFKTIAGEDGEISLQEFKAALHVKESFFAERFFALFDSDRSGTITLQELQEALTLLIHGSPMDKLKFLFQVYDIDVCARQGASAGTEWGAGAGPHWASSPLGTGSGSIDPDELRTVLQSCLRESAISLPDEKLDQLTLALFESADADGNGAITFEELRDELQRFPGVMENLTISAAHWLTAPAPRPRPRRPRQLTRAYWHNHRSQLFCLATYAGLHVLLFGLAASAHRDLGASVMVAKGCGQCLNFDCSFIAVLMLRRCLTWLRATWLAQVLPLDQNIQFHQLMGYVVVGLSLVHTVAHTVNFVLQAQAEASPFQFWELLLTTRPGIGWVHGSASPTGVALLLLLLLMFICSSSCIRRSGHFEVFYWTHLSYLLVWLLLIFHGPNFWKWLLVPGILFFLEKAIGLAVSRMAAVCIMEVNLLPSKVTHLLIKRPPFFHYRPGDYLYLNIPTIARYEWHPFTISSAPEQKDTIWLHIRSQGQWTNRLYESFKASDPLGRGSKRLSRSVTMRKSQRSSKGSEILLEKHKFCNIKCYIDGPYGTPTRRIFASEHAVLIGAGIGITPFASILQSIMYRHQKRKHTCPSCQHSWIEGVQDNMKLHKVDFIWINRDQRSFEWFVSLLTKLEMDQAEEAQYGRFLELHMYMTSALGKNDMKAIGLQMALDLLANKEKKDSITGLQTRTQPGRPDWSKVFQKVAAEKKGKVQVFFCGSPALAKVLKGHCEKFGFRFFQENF
Protocol: The synthetic gene hNOX5 (Accession: Q96PH1) is cloned into pcDNA3.1_Zeo. […] The final construct is verified by sequencing.
Evaluation of the NOX4 inhibitors on NOX5 activity is assessed in HEK293 cells stably overexpressing human NOX5 (hNOX5).
Cells are seeded in 384 well plates over-night. […] Cells are then stimulated with PMA at 0.1 μM to induce NOX5-dependent ROS production. […] Luminescence is measured with an PHERAstar multimode reader.

[2] = system: human hepatocytes; assay: Evaluation of hepatocyte clearance (metabolic stability); type: in vitro ADME; details: 1 μM test compound, 5% human serum, Table 3
Protocol: The metabolic degradation of the test compound is assayed in a hepatocyte suspension. Hepatocytes (cryopreserved) are incubated in Dulbecco's modified eagle medium (supplemented with […] glucagon/500 mL, 2.5 mg insulin/500 mL and 3.75 mg/500 mL hydrocortisone) containing 5% human serum.
Following a 30 min preincubation in an incubator (37° C., 10% CO2) 5 μl of test compound solution (80 μM; from 2 mM in DMSO stock solution diluted 1:25 with medium) are added into 395 μl hepatocyte suspension (cell density in the range 0.25-5 Mio cells/mL, typically 1 Mio cells/mL; final concentration of test compound 1 μM, final DMSO concentration 0.05%).
The cells are incubated for six hours (incubator, orbital shaker) and samples (25 μl) are taken at 0, 0.5, 1, 2, 4 and 6 hours. Samples are transferred into acetonitrile and pelleted by centrifugation (5 min). The supernatant is transferred to a new 96-deepwell plate, evaporated under nitrogen and resuspended.
Decline of Parent Compound is Analyzed by HPLC-MS/MS.
CLint is Calculated as Follows:
CL_[…]=Dose/AUC=(C0/CD)/(AUD+clast/k)×1000/60. • C0: initial concentration in the incubation [μM], CD: cell density of vital cells [10^6 cells/mL], AUD: area under the data [μM×h], clast: concentration of last data point [μM], • k: slope of the regression line for parent decline [h-1].
The calculated in vitro hepatic intrinsic clearance can be scaled up to the intrinsic in vivo hepatic clearance and used to predict hepatic in vivo blood clearance (CL) by the use of a liver model (well stirred model).
CL_[…]_INVIVO[ml/min/kg]=(CL_[…][μL/min/10^6 cells]×hepatocellularity[10^6 cells/g liver]×liver factor[g/kg bodyweight])/1000
CL[ml/min/kg]=CL_[…]_INVIVO[ml/min/kg]×hepatic blood flow[ml/min/kg]/(CL_[…]_INVIVO[ml/min/kg]+hepatic blood flow[ml/min/kg])

[3] = molecular target: T2, NOX2 (Homo sapiens, UniProt P04839); assay: NOX2 inhibition assay (L-012), human blood-derived granulocytes; type: cell-based; details: fMLP/PMA stimulated
T2 construct: endogenous in cells; host or cells: freshly isolated human blood-derived granulocytes
T2 sequence (P04839 2-570 limits assumed): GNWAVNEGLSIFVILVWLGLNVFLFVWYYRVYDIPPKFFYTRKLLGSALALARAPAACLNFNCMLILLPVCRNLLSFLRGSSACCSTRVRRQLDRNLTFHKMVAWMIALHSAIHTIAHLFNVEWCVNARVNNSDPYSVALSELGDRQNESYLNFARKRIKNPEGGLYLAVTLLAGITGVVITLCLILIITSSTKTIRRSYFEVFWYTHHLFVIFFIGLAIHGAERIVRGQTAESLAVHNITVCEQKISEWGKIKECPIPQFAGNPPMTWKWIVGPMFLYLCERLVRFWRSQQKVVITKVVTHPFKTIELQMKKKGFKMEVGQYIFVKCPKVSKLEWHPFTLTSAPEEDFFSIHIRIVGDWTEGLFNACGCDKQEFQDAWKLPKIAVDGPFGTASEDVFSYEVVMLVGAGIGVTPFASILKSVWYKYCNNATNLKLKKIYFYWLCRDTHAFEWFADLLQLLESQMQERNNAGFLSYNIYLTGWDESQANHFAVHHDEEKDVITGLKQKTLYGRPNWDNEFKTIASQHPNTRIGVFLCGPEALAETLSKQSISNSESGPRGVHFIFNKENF
T2 sequence (P13498 2-195 partner limits assumed): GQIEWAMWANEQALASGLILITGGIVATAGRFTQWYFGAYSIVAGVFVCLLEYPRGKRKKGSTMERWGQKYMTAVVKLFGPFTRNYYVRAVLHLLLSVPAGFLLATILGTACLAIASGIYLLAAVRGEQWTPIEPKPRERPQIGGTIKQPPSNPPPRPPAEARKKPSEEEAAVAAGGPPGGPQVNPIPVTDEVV
Protocol: Evaluation of the NOX4 inhibitors on NOX2 activity is assessed in human blood-derived granulocytes.
Afterwards, freshly isolated granulocytes are added to the wells containing the compounds in assay buffer and incubated for 1 h at 37° C. Next, a solution of Nformylmethionine-leucyl-phenylalanine (fMLP; 730 nM), phorbol myristate acetate (PMA, 100 nM) (stimuli of ROS production) and L-012 (200 μM, ROS indicator) is added to the wells and the cells are incubated for additional 30 mins at 37° C. Afterwards luminescence is measured in a SpectraMax M5 microplate reader.

| Structure (SMILES) | pIC50 [1] | Qh [%] [2] [%] | pIC50 [3] |
| --- | --- | --- | --- |
| O=c1c2scnc2nc(SCc2c(F)cc(F)cc2F)n1-c1ncc(O)cn1 [Example 21, 6-(5-Hydroxypyrimidin-2-yl)-5-((2,4,6-trifluorobenzyl)thio)thiazolo[4,5-d]pyrimidin-7(6H)-one] | < 4.00 | 27 | < 4.00 |
| O=c1c2scnc2nc(SCc2ccc(Cl)cc2F)n1-c1ccc(O)nc1 [Example 22, 5-((4-Chloro-2-fluorobenzyl)thio)-6-(6-hydroxypyridin-3-yl)thiazolo[4,5-d]pyrimidin-7(6H)-one] | < 4.00 | 45 | < 4.52 |
| Cc1cc(Cl)ccc1CSc1nc2ncsc2c(=O)n1-c1ccc(O)nc1 [Example 23] | < 4.00 | 55 | < 4.00 |
| Cc1cc(F)cc(C)c1CSc1nc2ncsc2c(=O)n1-c1ccc(O)nc1 [Example 24] | < 4.00 | 45 | 4.99 |
| O=c1c2scnc2nc(SCc2ccc(Cl)cc2)n1-c1ccc(O)nc1 [Example 25] | < 4.00 | 41 | < 4.00 |
| O=c1c2scnc2nc(SCc2ccc(C(F)(F)F)cc2F)n1-c1ccc(O)nc1 [Example 26] | 4.24 | 41 | < 4.00 |
| O=c1c2scnc2nc(SCc2ccc(C(F)(F)F)cc2)n1-c1ccc(O)nc1 [Example 27] | 4.03 | 37 | < 4.00 |
| O=c1c2scnc2nc(SCc2c(F)cc(F)cc2F)n1-c1ccc(O)nc1 [Example 28] | < 4.00 | 29 | < 4.52 |
| Cc1cc(F)ccc1CSc1nc2ncsc2c(=O)n1-c1ccc(O)nc1 [Example 29] | < 4.00 | 54 | 4.43 |
| O=c1c2scnc2nc(SCc2ccc(F)cc2)n1-c1ccc(O)nc1 [Example 30] | 4.02 | 22 | < 4.52 |
| O=c1c2scnc2nc(SCc2c(F)cc(F)cc2F)n1-c1cnc(O)c(F)c1 [Example 31, 6-(5-Fluoro-6-hydroxypyridin-3-yl)-5-((2,4,6-trifluorobenzyl)thio)thiazolo[4,5-d]-pyrimidin-7(6H)-one] | < 4.00 | 14 | 4.98 |
| O=c1c2scnc2nc(SCc2ccc(C(F)(F)F)cc2)n1-c1cnc(O)c(F)c1 [Example 32, 6-(5-Fluoro-6-hydroxypyridin-3-yl)-5-((4-(trifluoromethyl)benzyl)thio)thiazolo[4,5-d]pyrimidin-7(6H)-one] | 4.25 | 15 | < 4.00 |
| O=c1c2scnc2nc(SCc2ccc(Cl)cc2)n1-c1cnc(O)c(F)c1 [Example 33] | < 4.00 | 15 | < 4.00 |
| O=c1c2scnc2nc(SCc2ccc(Br)cc2F)n1-c1cnc(O)c(F)c1 [Example 34] | 4.33 | 8 | < 4.00 |
| O=c1c2scnc2nc(SCc2ccc(Cl)cc2F)n1-c1cnc(O)c(F)c1 [Example 35] | 4.18 | 15 | < 4.00 |
| Cc1cc(F)ccc1CSc1nc2ncsc2c(=O)n1-c1cnc(O)c(F)c1 [Example 36] | < 4.00 | 34 | < 4.00 |
| Cc1cc(Cl)ccc1CSc1nc2ncsc2c(=O)n1-c1cnc(O)c(F)c1 [Example 37] | 4.19 | 16 | < 4.00 |
| O=c1c2scnc2nc(SCc2ccc(F)cc2F)n1-c1cnc(O)c(F)c1 [Example 38] | < 4.00 | 11 | < 4.00 |
| O=c1c2scnc2nc(SCc2ccc(Cl)cc2Cl)n1-c1cnc(O)c(F)c1 [Example 39] | 4.32 | 26 | < 4.00 |
| O=c1c2scnc2nc(SCc2c(F)cc(F)cc2Cl)n1-c1cnc(O)c(F)c1 [Example 41] | 4.45 | 26 | 4.41 |
| O=c1c2scnc2nc(SCc2ccc(C(F)(F)F)cc2F)n1-c1cnc(O)c(F)c1 [Example 42] | 4.33 | 14 | < 4.00 |
| Cc1cc(F)cc(C)c1CSc1nc2ncsc2c(=O)n1-c1cnc(O)c(F)c1 [Example 43] | < 4.00 | 37 | < 4.00 |
| O=c1c2scnc2nc(SCc2ccc(F)cc2Br)n1-c1cnc(O)c(F)c1 [Example 44] | 4.17 | 29 | < 4.00 |
| O=c1c2scnc2nc(SCc2c(F)ccc(F)c2F)n1-c1cnc(O)c(F)c1 [Example 45] | 4.10 | 23 | < 4.00 |
| O=c1c2scnc2nc(SCc2ccc(C(F)(F)F)cc2Cl)n1-c1cnc(O)c(F)c1 [Example 46] | 4.35 | 21 | < 4.00 |
| N#Cc1cc(-n2c(SCc3c(F)cc(F)cc3F)nc3ncsc3c2=O)cnc1O [Example 47, 2-Hydroxy-5-(7-oxo-5-((2,4,6-trifluorobenzyl)thio)thiazolo[4,5-d]pyrimidin-6(7H)-yl)-nicotinonitrile] | < 4.00 | 15 | < 4.52 |
| O=c1c2scnc2nc(SCc2c(F)cc(F)cc2F)n1-c1cnc(O)c(Cl)c1 [Example 48, 6-(5-Chloro-6-hydroxypyridin-3-yl)-5-((2,4,6-trifluorobenzyl)thio)thiazolo[4,5-d]pyri-midin-7(6H)-one] | < 4.00 | 22 | < 4.00 |

— patent US20240327429A1, “[1,3]Thiazolo[4,5-d]-pyrimidon-7-ones as inhibitors of NOX4” (Boehringer Ingelheim International GmbH, priority 2023, published 2024)
